These results are taken from patent US11147272B2, “Pyridone compounds and agricultural and horticultural fungicides comprising the same as active ingredients” (MITSUI CHEMICALS AGRO, INC., priority 2017, dated 2021).

Molecules are shown by their SMILES.

Assay [1] relates to Colletotrichum orbiculare. In words: Test Example H: Anthracnose on cucumber. The settings on record: Anthracnose on cucumber; 250 ppm spray, 6 to 10 days after inoculation.
A further assay has as its system Botrytis cinerea. The assay is described as follows: Test Example B: Gray mold on tomato. The settings on record: Gray mold on tomato; control value class.
A further assay deals with Alternaia brassicicola. The assay is described as follows: Test Example C: Alternaria sooty spot on cabbage. Type of assay: in vivo. The settings on record: Alternaria sooty spot on cabbage; control value class. The source says: Seeds of a test plant (cabbage variety: Shikidori) were planted and cultivated until the cotyledons extended.
<Control Value> Control value=100{1−(n/3)}

Another assay concerns Magnaporthe grisea. The assay is described as follows: whole plant or invertebrate. Type of assay: in vivo. The settings on record: Blast on rice; control value class.
A further assay concerns Phytophthora infestans. In words: whole plant or invertebrate. It counts as in vivo. The settings on record: Late blight on tomato; control value class.
In assay [2] the test system is Blumeria graminis f. sp. hordei. The assay is described as follows: Test Example D: Powdery mildew on barley. The following applies: Powdery mildew on barley; control value class.
A further assay concerns Puccinia recondita. The assay is described as follows: Test Example E: Brown rust on wheat. Type of assay: in vivo. The settings on record: Brown rust on wheat; control value class.
In a further assay the test system is Plasmopara viticola. The assay is described as follows: Test Example G: Downy mildew on vine. The following applies: Downy mildew on vine; 250 ppm spray, 7 to 10 days after inoculation.

For the compound `C=C(c1cc(Cl)c(=O)n(CC)c1-c1c(F)cc(F)cc1F)C(C)C` [compound 243], the “Test H control value” in assay [1] was “H (more than 50% control value)”. Besides, in the assay with Botrytis cinerea, the “Test B control value” is “H (more than 50% control value)”. The “Test C control value” in the assay on Alternaia brassicicola is reported as “H (more than 50% control value)”. In addition, the “Test A control value” with Magnaporthe grisea is “H (more than 50% control value)”. Further, the “Test F control value” in the assay with Phytophthora infestans was “L (50% or less control value)”. In addition, the “Test D control value” in assay [2] is reported as “H (more than 50% control value)”. Besides, the “Test E control value” in the assay with Puccinia recondita is “H (more than 50% control value)”. The “Test G control value” in the assay on Plasmopara viticola was “L (50% or less control value)”.

Regarding `CCn1c(-c2c(F)cc(F)cc2F)c(C(C)(O)C2CCCC2)cc(Cl)c1=O` (stereo not shown) [compound 244], in assay [1], the “Test H control value” is on record as “H (more than 50% control value)”. Further, the “Test B control value” in the assay with Botrytis cinerea is on record as “H (more than 50% control value)”. Also, the “Test C control value” in the assay on Alternaia brassicicola is on record as “H (more than 50% control value)”. For the same compound, the “Test A control value” in the assay with Magnaporthe grisea is listed as “H (more than 50% control value)”. The “Test F control value” with Phytophthora infestans is listed as “L (50% or less control value)”. Besides, in assay [2], the “Test D control value” was “H (more than 50% control value)”. In addition, in the assay with Puccinia recondita, the “Test E control value” was “H (more than 50% control value)”. The “Test G control value” in the assay on Plasmopara viticola is reported as “L (50% or less control value)”.

As to `CCn1c(-c2c(F)cc(F)cc2F)c(C(C)(OC)C2CCCC2)cc(Cl)c1=O` (stereo not shown) [compound 245], the “Test H control value” in assay [1] is “L (50% or less control value)”. Further, the “Test B control value” with Botrytis cinerea was “L (50% or less control value)”. In the assay with Alternaia brassicicola, the “Test C control value” is recorded as “H (more than 50% control value)”. The “Test A control value” in the assay with Magnaporthe grisea is reported as “L (50% or less control value)”. Also, the “Test F control value” in the assay with Phytophthora infestans is “L (50% or less control value)”. For the same compound, in assay [2], the “Test D control value” is on record as “L (50% or less control value)”. Besides, the “Test E control value” in the assay on Puccinia recondita was “L (50% or less control value)”. The “Test G control value” with Plasmopara viticola is reported as “L (50% or less control value)”.

For `CCn1c(-c2ccc(OC)cc2)c(C(O)C(C)C)cc(Cl)c1=O` (stereo not shown) [compound 246], in assay [1], the “Test H control value” is “L (50% or less control value)”. Besides, the “Test B control value” in the assay with Botrytis cinerea was “L (50% or less control value)”. Besides, the “Test C control value” with Alternaia brassicicola was “H (more than 50% control value)”. The “Test A control value” in the assay with Magnaporthe grisea is recorded as “L (50% or less control value)”. The “Test F control value” in the assay with Phytophthora infestans is reported as “L (50% or less control value)”. In addition, in assay [2], the “Test D control value” is recorded as “L (50% or less control value)”. Besides, the “Test E control value” with Puccinia recondita was “H (more than 50% control value)”. Further, in the assay with Plasmopara viticola, the “Test G control value” is recorded as “L (50% or less control value)”.

As to `CCOC(C)(c1cc(Cl)c(=O)n(CC)c1-c1ccc(OC)cc1)C(C)C` (stereo not shown) [compound 247], the “Test H control value” in assay [1] was “L (50% or less control value)”. Also, the “Test B control value” with Botrytis cinerea is reported as “H (more than 50% control value)”. In addition, the “Test C control value” in the assay on Alternaia brassicicola is on record as “L (50% or less control value)”. For the same compound, the “Test A control value” with Magnaporthe grisea was “L (50% or less control value)”. Further, the “Test F control value” with Phytophthora infestans is on record as “L (50% or less control value)”. Besides, the “Test D control value” in assay [2] is reported as “H (more than 50% control value)”. Also, the “Test E control value” in the assay with Puccinia recondita is “L (50% or less control value)”. The “Test G control value” in the assay with Plasmopara viticola is “L (50% or less control value)”.

Regarding `CCCOC(C)(c1cc(Cl)c(=O)n(CC)c1-c1ccc(OC)cc1)C(C)C` (stereo not shown) [compound 248], in assay [1], the “Test H control value” was “L (50% or less control value)”. Moreover, the “Test B control value” with Botrytis cinerea is given as “L (50% or less control value)”. Moreover, the “Test C control value” with Alternaia brassicicola was “L (50% or less control value)”. Also, the “Test A control value” in the assay with Magnaporthe grisea was “H (more than 50% control value)”. The “Test F control value” with Phytophthora infestans is “L (50% or less control value)”. In addition, in assay [2], the “Test D control value” was “L (50% or less control value)”. The “Test E control value” in the assay with Puccinia recondita is reported as “L (50% or less control value)”. Also, the “Test G control value” in the assay on Plasmopara viticola is “L (50% or less control value)”.

Consider `CCn1c(-c2ccc(OC)cc2)c(C(C)(F)C(C)C)cc(Cl)c1=O` (stereo not shown) [compound 249], for which the “Test H control value” in assay [1] is “H (more than 50% control value)”. For the same compound, the “Test B control value” in the assay with Botrytis cinerea is listed as “H (more than 50% control value)”. In the assay on Alternaia brassicicola, the “Test C control value” was “H (more than 50% control value)”. Also, the “Test A control value” in the assay on Magnaporthe grisea is “L (50% or less control value)”. In the assay on Phytophthora infestans, the “Test F control value” is given as “L (50% or less control value)”. Moreover, the “Test D control value” in assay [2] is on record as “L (50% or less control value)”. Besides, the “Test E control value” in the assay with Puccinia recondita was “H (more than 50% control value)”. The “Test G control value” in the assay with Plasmopara viticola was “L (50% or less control value)”.

Take `CCn1c(-c2ccc(C#N)cc2)c(C(C)(OC)C(C)C)cc(Cl)c1=O` (stereo not shown) [compound 250]: the “Test H control value” in assay [1] is “L (50% or less control value)”. The “Test B control value” with Botrytis cinerea was “H (more than 50% control value)”. Further, the “Test C control value” with Alternaia brassicicola is listed as “L (50% or less control value)”. In addition, in the assay with Magnaporthe grisea, the “Test A control value” was “L (50% or less control value)”. Besides, the “Test F control value” in the assay on Phytophthora infestans is “L (50% or less control value)”. Besides, the “Test D control value” in assay [2] was “L (50% or less control value)”. In the assay on Puccinia recondita, the “Test E control value” is recorded as “H (more than 50% control value)”. Further, the “Test G control value” in the assay on Plasmopara viticola is reported as “L (50% or less control value)”.

On to `CCOC(C)(c1cc(Cl)c(=O)n(CC)c1-c1ccc(C#N)cc1)C(C)C` (stereo not shown) [compound 251], for which, in assay [1], the “Test H control value” is reported as “L (50% or less control value)”. Further, the “Test B control value” with Botrytis cinerea is listed as “L (50% or less control value)”. Also, the “Test C control value” in the assay with Alternaia brassicicola is “H (more than 50% control value)”. Moreover, the “Test A control value” in the assay on Magnaporthe grisea is recorded as “L (50% or less control value)”. Also, the “Test F control value” in the assay with Phytophthora infestans was “L (50% or less control value)”. Besides, the “Test D control value” in assay [2] is recorded as “L (50% or less control value)”. In addition, in the assay on Puccinia recondita, the “Test E control value” was “L (50% or less control value)”. Also, the “Test G control value” in the assay on Plasmopara viticola is listed as “L (50% or less control value)”.

On to `CCCOC(C)(c1cc(Cl)c(=O)n(CC)c1-c1ccc(C#N)cc1)C(C)C` (stereo not shown) [compound 252], for which the “Test H control value” in assay [1] is “L (50% or less control value)”. The “Test B control value” with Botrytis cinerea is “L (50% or less control value)”. The “Test C control value” with Alternaia brassicicola is listed as “L (50% or less control value)”. The “Test A control value” in the assay on Magnaporthe grisea is on record as “H (more than 50% control value)”. Besides, the “Test F control value” in the assay with Phytophthora infestans was “L (50% or less control value)”. The “Test D control value” in assay [2] is on record as “L (50% or less control value)”. For the same compound, in the assay on Puccinia recondita, the “Test E control value” was “L (50% or less control value)”. The “Test G control value” in the assay on Plasmopara viticola is given as “L (50% or less control value)”.

Turning to `CCn1c(-c2ccc(C#N)cc2)c(C(C)(F)C(C)C)cc(Cl)c1=O` (stereo not shown) [compound 253], the “Test H control value” in assay [1] is given as “L (50% or less control value)”. Moreover, the “Test B control value” with Botrytis cinerea was “H (more than 50% control value)”. The “Test C control value” in the assay with Alternaia brassicicola is recorded as “H (more than 50% control value)”. For the same compound, the “Test A control value” in the assay on Magnaporthe grisea was “L (50% or less control value)”. Besides, in the assay on Phytophthora infestans, the “Test F control value” is given as “L (50% or less control value)”. In addition, in assay [2], the “Test D control value” is “L (50% or less control value)”. The “Test E control value” in the assay with Puccinia recondita is given as “L (50% or less control value)”. For the same compound, the “Test G control value” in the assay with Plasmopara viticola is recorded as “L (50% or less control value)”.
